Results from US12594252B2, “Methods for treating inflammatory skin conditions” (JOURNEY MEDICAL CORPORATION, priority 2018, dated 2026).

Tested on: subjects diagnosed with papulopustular rosacea
Assay: 16-week, multi-center, randomized, double-blind, parallel-group, controlled efficacy study
Assay type: in vivo, human
Conditions: minocycline about 40 mg, equivalent doses
Procedure: The pharmaceutical compositions as shown in Example 1 and 3 were studied in a 16-week, multi-center, randomized, double-blind, parallel-group, controlled study to evaluate efficacy. Subjects, who were at least 18 years old, diagnosed with papulopustular rosacea were randomized to 4 different treatment groups (50 subjects each in groups 1 to 4). Each subject was allocated to one of the treatment groups, receiving a single dose of Example 1 (Group 1) and Example 3 (Group 2): […]®-40 mg doxycycline capsules (Group 3); and placebo capsules (Group 4), orally for 16 weeks. Subjects' visits were scheduled at screening, baseline (day 1), and weeks 4, 8, 12 and 16. Clinical assessments of efficacy was conducted based on, proportion of subjects with IGA 'treatment success (reduction in IGA grade)' and reduction in total inflammatory lesion count (sum of papules, pustules, and nodules) from baseline (day 1) to weeks 4, 8, 12 and 16. The results are shown in following table 9 (IGA 'treatment success), table 10 (total inflammatory lesion change), table 11 (P values) and FIG. 6, FIG. 7, FIG. 8.

`CN(C)c1ccc(O)c2c1C[C@H]1C[C@H]3[C@H](N(C)C)C(O)=C(C(N)=O)C(=O)[C@@]3(O)C(O)=C1C2=O` [minocycline, [4S-(4α,4aα,5aα,12aα)]-4,7-Bis(dimethylamino)-1,4,4a,5,5a,6,11,12a-octahydro-3,10,12,12a-tetrahydroxy-1,11-dioxo-2-naphthacenecarboxamide] was tested, and the “% reduction in lesion counts, more as compared to doxycycline (40 mg)” value was “about 100%”.
